Data reported in article PMC7523345 (Investigational new drugs, 2018).

Assay: Phase I dose escalation study: safety, tolerability, DLT and MTD
Format: in vivo

Cc1cccc2c1NC(=O)[C@@H](NC(=O)[C@H](CCC(F)(F)F)[C@H](CCC(F)(F)F)C(N)=O)N=C2c1cccc(F)c1 [BMS-986115]
Fatigue (drug related AE, Grade 3 and 4) (Arm A QD 0.3 mg (N = 2)): 0 n (%)
Fatigue (drug related AE, all grades) (Arm A QD 0.3 mg (N = 2)): 0 n (%)
Flatulence (drug related AE, all grades) (Arm A QD 0.3 mg (N = 2)): 0 n (%)
Hypocalcaemia (drug related AE, Grade 3 and 4) (Arm A QD 0.3 mg (N = 2)): 0 n (%)
Hypocalcaemia (drug related AE, all grades) (Arm A QD 0.3 mg (N = 2)): 0 n (%)
Hypokalaemia (drug related AE, Grade 3 and 4) (Arm A QD 0.3 mg (N = 2)): 0 n (%)
Hypokalaemia (drug related AE, all grades) (Arm A QD 0.3 mg (N = 2)): 0 n (%)
Hyponatraemia (drug related AE, Grade 3 and 4) (Arm A QD 0.3 mg (N = 2)): 0 n (%)
Hyponatraemia (drug related AE, all grades) (Arm A QD 0.3 mg (N = 2)): 0 n (%)
Hypophosphataemia (drug related AE, Grade 3 and 4) (Arm A QD 0.3 mg (N = 2)): 1 (50) n (%)
Hypophosphataemia (drug related AE, all grades) (Arm A QD 0.3 mg (N = 2)): 2 (100) n (%)
Ileus (drug related AE, Grade 3 and 4) (Arm A QD 0.3 mg (N = 2)): 0 n (%)
Increased upper airway secretion (drug related AE, all grades) (Arm A QD 0.3 mg (N = 2)): 0 n (%)
Laryngeal pain (drug related AE, all grades) (Arm A QD 0.3 mg (N = 2)): 0 n (%)
Leucocytosis (drug related AE, Grade 3 and 4) (Arm A QD 0.3 mg (N = 2)): 0 n (%)
Mouth ulceration (drug related AE, all grades) (Arm A QD 0.3 mg (N = 2)): 0 n (%)
Nausea (drug related AE, Grade 3 and 4) (Arm A QD 0.3 mg (N = 2)): 0 n (%)
Nausea (drug related AE, all grades) (Arm A QD 0.3 mg (N = 2)): 0 n (%)
Pruritus (drug related AE, Grade 3 and 4) (Arm A QD 0.3 mg (N = 2)): 0 n (%)
Pruritus (drug related AE, all grades) (Arm A QD 0.3 mg (N = 2)): 1 (50) n (%)
Pulmonary embolism (drug related AE, Grade 3 and 4) (Arm A QD 0.3 mg (N = 2)): 0 n (%)
Rash (drug related AE, all grades) (Arm A QD 0.3 mg (N = 2)): 1 (50) n (%)
Rash maculopapular (drug related AE, all grades) (Arm A QD 0.3 mg (N = 2)): 0 n (%)
Sinusitis (drug related AE, all grades) (Arm A QD 0.3 mg (N = 2)): 1 (50) n (%)
Urticaria (drug related AE, Grade 3 and 4) (Arm A QD 0.3 mg (N = 2)): 0 n (%)
Vision blurred (drug related AE, all grades) (Arm A QD 0.3 mg (N = 2)): 0 n (%)
Vomiting (drug related AE, Grade 3 and 4) (Arm A QD 0.3 mg (N = 2)): 0 n (%)
Vomiting (drug related AE, all grades) (Arm A QD 0.3 mg (N = 2)): 0 n (%)
Weight decreased (drug related AE, all grades) (Arm A QD 0.3 mg (N = 2)): 0 n (%)
No. of patients with DLTs (Arm A QD 0.3 mg, 2 DLT evaluable patients): 0
Abdominal distension (drug related AE, all grades) (Arm A QD 0.6 mg (N = 2)): 0 n (%)
Abdominal pain (drug related AE, Grade 3 and 4) (Arm A QD 0.6 mg (N = 2)): 0 n (%)
Abdominal pain (drug related AE, all grades) (Arm A QD 0.6 mg (N = 2)): 0 n (%)
Blood creatinine increased (drug related AE, all grades) (Arm A QD 0.6 mg (N = 2)): 0 n (%)
Colitis (drug related AE, Grade 3 and 4) (Arm A QD 0.6 mg (N = 2)): 0 n (%)
Cough (drug related AE, Grade 3 and 4) (Arm A QD 0.6 mg (N = 2)): 0 n (%)
Cough (drug related AE, all grades) (Arm A QD 0.6 mg (N = 2)): 0 n (%)
Decreased Appetite (drug related AE, Grade 3 and 4) (Arm A QD 0.6 mg (N = 2)): 0 n (%)
Decreased Appetite (drug related AE, all grades) (Arm A QD 0.6 mg (N = 2)): 0 n (%)
Dehydration (drug related AE, Grade 3 and 4) (Arm A QD 0.6 mg (N = 2)): 0 n (%)
Dehydration (drug related AE, all grades) (Arm A QD 0.6 mg (N = 2)): 0 n (%)
Dermatitis acneiform (drug related AE, all grades) (Arm A QD 0.6 mg (N = 2)): 0 n (%)
Diarrhoea (drug related AE, Grade 3 and 4) (Arm A QD 0.6 mg (N = 2)): 0 n (%)
Diarrhoea (drug related AE, all grades) (Arm A QD 0.6 mg (N = 2)): 1 (50) n (%)
Dry mouth (drug related AE, all grades) (Arm A QD 0.6 mg (N = 2)): 0 n (%)
Dry skin (drug related AE, all grades) (Arm A QD 0.6 mg (N = 2)): 0 n (%)
Dysgeusia (drug related AE, all grades) (Arm A QD 0.6 mg (N = 2)): 0 n (%)
Dyspepsia (drug related AE, all grades) (Arm A QD 0.6 mg (N = 2)): 0 n (%)
Dysphonia (drug related AE, all grades) (Arm A QD 0.6 mg (N = 2)): 0 n (%)
Fatigue (drug related AE, Grade 3 and 4) (Arm A QD 0.6 mg (N = 2)): 0 n (%)
Fatigue (drug related AE, all grades) (Arm A QD 0.6 mg (N = 2)): 0 n (%)
Flatulence (drug related AE, all grades) (Arm A QD 0.6 mg (N = 2)): 0 n (%)
Hypocalcaemia (drug related AE, Grade 3 and 4) (Arm A QD 0.6 mg (N = 2)): 0 n (%)
Hypocalcaemia (drug related AE, all grades) (Arm A QD 0.6 mg (N = 2)): 0 n (%)
Hypokalaemia (drug related AE, Grade 3 and 4) (Arm A QD 0.6 mg (N = 2)): 0 n (%)
Hypokalaemia (drug related AE, all grades) (Arm A QD 0.6 mg (N = 2)): 0 n (%)
Hyponatraemia (drug related AE, Grade 3 and 4) (Arm A QD 0.6 mg (N = 2)): 0 n (%)
Hyponatraemia (drug related AE, all grades) (Arm A QD 0.6 mg (N = 2)): 0 n (%)
Hypophosphataemia (drug related AE, Grade 3 and 4) (Arm A QD 0.6 mg (N = 2)): 0 n (%)
Hypophosphataemia (drug related AE, all grades) (Arm A QD 0.6 mg (N = 2)): 1 (50) n (%)
Ileus (drug related AE, Grade 3 and 4) (Arm A QD 0.6 mg (N = 2)): 0 n (%)
Increased upper airway secretion (drug related AE, all grades) (Arm A QD 0.6 mg (N = 2)): 0 n (%)
Laryngeal pain (drug related AE, all grades) (Arm A QD 0.6 mg (N = 2)): 0 n (%)
Leucocytosis (drug related AE, Grade 3 and 4) (Arm A QD 0.6 mg (N = 2)): 0 n (%)
Mouth ulceration (drug related AE, all grades) (Arm A QD 0.6 mg (N = 2)): 0 n (%)
Nausea (drug related AE, Grade 3 and 4) (Arm A QD 0.6 mg (N = 2)): 0 n (%)
Nausea (drug related AE, all grades) (Arm A QD 0.6 mg (N = 2)): 1 (50) n (%)
Pruritus (drug related AE, Grade 3 and 4) (Arm A QD 0.6 mg (N = 2)): 0 n (%)
Pruritus (drug related AE, all grades) (Arm A QD 0.6 mg (N = 2)): 0 n (%)
Pulmonary embolism (drug related AE, Grade 3 and 4) (Arm A QD 0.6 mg (N = 2)): 0 n (%)
Rash (drug related AE, all grades) (Arm A QD 0.6 mg (N = 2)): 1 (50) n (%)
